Assay results reported in patent publication US20170129919A1, “CYCLIC DIPEPTIDE-CONTAINING COMPOSITION” (Suntory Holdings Limited, priority 2014, published 2017).
Converted amounts (≈) assume the structure as drawn.

What was measured:
xanthine oxidase (XO) [1] = test: In vitro xanthine oxidase (XO) inhibiting action; assay type: biochemical; conditions: Table 1; PBS pH 7.5, xanthine substrate, absorbance at 295 nm after 30 minutes; mean±standard error; read-out: IC50 (Activity of Inhibiting XO of Tyr-Containing Cyclic Dipeptides)
Protocol: The in vitro xanthine oxidase (XO) inhibiting action was studied on 210 kinds of cyclic dipeptides, linear dipeptides Tyr-Gly and Gly-Tyr, and an amino acid Tyr. […] Thereafter, 20 μL of a 250 μM xanthine solution previously dissolved in the PBS was added thereto, and the absorbance after 30 minutes was measured using a spectrophotometer (Synegy HT, manufactured by Bio Tek). The XO inhibition rate (%) at each concentration was calculated by the following calculation formula, to obtain activities of inhibiting XO (IC50 values).

[2] = Stability of standard product in aqueous solution (LC-MS/MS content measurement); assay type: physicochemical
Solubility in water = assay type: physicochemical; conditions: Table 5
Protocol: Concretely, each compound was added to distilled water (manufactured by Otsuka Pharmaceutical Co., Ltd.) at an ambient temperature (25° C.) so as to have a final concentration of 5 mM, and the mixture was stirred under ultrasonication for 30 minutes to dissolve. […] However, none of the compounds dissolved, so that distilled water was further added thereto so as to have a final concentration of 0.01 mM, and the mixture was stirred under ultrasonication for 30 minutes, but still no compounds dissolved.

hyperuricemic mice = test: Action of lowering serum uric acid levels for hyperuricemic mice (potassium oxonate model); assay type: in vivo, BALBc mice; conditions: FIG. 2
Protocol: As to the animals used, male 7-week old BALBc mice were purchased from CLEA Japan, Inc., and subjected to an experiment after a one-week period of conditioning. The animals were bred in a breeding room with air-conditioning facilities (temperature: 23.5°±1.0° C., humidity: 55±10 RH %, the number of ventilation: 12 to 15 times/hour, illuminated: from 7:00 to 19:00 each day). During the period of conditioning, the mice were allowed to take a commercially available feed (CE-2, manufactured by CLEA Japan, Inc.) and distilled water ad libitum.
Oxonic acid is a substance that raises a blood uric acid level by inhibiting a urikase, a metabolic enzyme for uric acid. In view of the above, potassium oxonate (PO) was administered, thereby generating hyperuricemic model animals (see, Planta Med 2009; 75:302-306). Studies were made on the following 6 groups:
In all the groups that include PO administration, PO previously suspended in a 0.5% aqueous CMC-Na solution at 250 mg/kg was administered, and Normal Group was administered with a 0.5% aqueous CMC-Na solution, each being administered intraperitoneally. […] After 2 hours from the administration with PO, the blood was collected from the abdominal vena cava under anesthesia. After blood removal, the liver was harvested. The collected blood was allowed to stand at room temperature for 45 minutes, and centrifuged at 8,000 rpm for 10 minutes to recover sera. Here, the sera and the liver were preserved at −80° C. until the measurements were carried out.
The serum uric acid level was measured using 7180 Clinical Analyzer (manufactured by Hitachi Technologies).
The actions of lowering serum uric acid levels of soybean peptide heat-treated products were studied using hyperuricemic model animals, in the same manner as in Test Example 2. Concretely, the animals used were furnished in the same manner as in Test Example 2, and studies were made on the following 5 groups.
For each of the above-mentioned groups, the administration and the blood collection were carried out in the same manner as in Test Example 2 to measure a serum uric acid level. […]
Here, the heat-treated product of the soybean peptide obtained by dissolving a soybean peptide (Hinute AM, manufactured by FUJI OIL, CO., LTD.) in distilled water in a concentration of 200 mg/mL, heating to 132° C. for 3 hours, and lyophilizing the heated mixture was used. The content of the cyclic dipeptide of the soybean peptide heat-treated product was measured according to LC-MS/MS under the following conditions. […]

xanthine oxidase (XO) [3] = molecular target: T1, xanthine oxidase (XO) (Mus musculus, UniProt Q00519); test: XO activity in the liver and sera of hyperuricemic mice; assay type: in vivo, BALBc mice; conditions: 100 mg/kg orally
T1 construct: the collected supernatant was subjected to an assay for a xanthine oxidase (XO) activity; from tissue; host or cells: liver homogenate supernatant and serum of male BALBc mice (potassium oxonate hyperuricemia model)
T1 sequence (Q00519 whole entry): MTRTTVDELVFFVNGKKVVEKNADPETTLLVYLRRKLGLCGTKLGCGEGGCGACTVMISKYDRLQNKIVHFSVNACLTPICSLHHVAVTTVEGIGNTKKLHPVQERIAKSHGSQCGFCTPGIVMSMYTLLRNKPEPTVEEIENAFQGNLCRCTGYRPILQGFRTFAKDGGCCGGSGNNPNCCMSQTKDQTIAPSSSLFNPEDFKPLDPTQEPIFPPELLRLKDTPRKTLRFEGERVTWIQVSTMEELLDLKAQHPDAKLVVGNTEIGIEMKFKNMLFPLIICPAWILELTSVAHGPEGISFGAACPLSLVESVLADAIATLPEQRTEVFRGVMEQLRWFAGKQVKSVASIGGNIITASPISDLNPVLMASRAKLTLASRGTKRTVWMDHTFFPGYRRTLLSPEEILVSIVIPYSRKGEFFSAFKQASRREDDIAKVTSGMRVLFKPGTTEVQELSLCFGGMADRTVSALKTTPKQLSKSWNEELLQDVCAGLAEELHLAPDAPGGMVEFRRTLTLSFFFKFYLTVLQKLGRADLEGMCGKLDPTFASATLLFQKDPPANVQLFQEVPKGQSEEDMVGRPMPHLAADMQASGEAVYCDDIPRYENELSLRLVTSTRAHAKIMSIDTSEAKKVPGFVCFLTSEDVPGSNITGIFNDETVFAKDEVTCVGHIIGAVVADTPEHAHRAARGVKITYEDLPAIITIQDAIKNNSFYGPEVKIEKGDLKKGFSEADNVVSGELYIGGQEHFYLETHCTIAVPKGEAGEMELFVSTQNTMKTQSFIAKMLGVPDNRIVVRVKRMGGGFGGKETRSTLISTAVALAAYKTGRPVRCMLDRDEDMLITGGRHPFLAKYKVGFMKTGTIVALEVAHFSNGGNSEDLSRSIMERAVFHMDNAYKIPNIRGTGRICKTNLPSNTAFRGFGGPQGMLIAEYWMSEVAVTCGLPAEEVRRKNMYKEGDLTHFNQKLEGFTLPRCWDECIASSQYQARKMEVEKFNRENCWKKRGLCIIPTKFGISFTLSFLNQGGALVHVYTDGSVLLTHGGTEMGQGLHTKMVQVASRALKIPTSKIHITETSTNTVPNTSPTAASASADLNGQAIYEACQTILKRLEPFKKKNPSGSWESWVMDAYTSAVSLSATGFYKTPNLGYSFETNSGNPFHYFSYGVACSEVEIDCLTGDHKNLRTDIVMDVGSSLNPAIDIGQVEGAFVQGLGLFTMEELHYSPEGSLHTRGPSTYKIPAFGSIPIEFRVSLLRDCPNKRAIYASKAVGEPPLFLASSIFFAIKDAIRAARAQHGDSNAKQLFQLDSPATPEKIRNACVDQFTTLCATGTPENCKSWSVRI
Protocol: As to the animals used, male 7-week old BALBc mice were purchased from CLEA Japan, Inc., and subjected to an experiment after a one-week period of conditioning. […] During the period of conditioning, the mice were allowed to take a commercially available feed (CE-2, manufactured by CLEA Japan, Inc.) and distilled water ad libitum.
Next, the livers of mice were added to a mixture of an ice-cooled protease inhibitor cocktail and an EDTA-containing tissue protein extraction reagent (T-PER), homogenized, and then centrifuged at 15,000 rpm, at 4° C. for 15 minutes, and the collected supernatant was subjected to an assay for a xanthine oxidase (XO) activity. […]

IC50 (xanthine oxidase (XO) [1]) [µM]	stability of the standard product in an aqueous solution [2]	solubility in water (in words) (Solubility in water)	solubility at 30 min (Solubility in water; distilled water, 25° C., ultrasonication 30 minutes, visual examination, tested at 5, 1, 0.1, 0.01 mM, insoluble = not dissolved at 0.01 mM) [µM]	xanthine oxidase activity in the sera (xanthine oxidase (XO) [3]; FIG. 3 lower panel)	xanthine oxidase activity in the liver (xanthine oxidase (XO) [3]; FIG. 3 upper panel)	Structure (SMILES)	serum uric acid level vs PO Group (hyperuricemic mice; 30 mg/kg orally)	serum uric acid level vs PO Group (hyperuricemic mice; 100 mg/kg orally)	action of lowering serum uric acid level, dose dependence (hyperuricemic mice; 10, 30, 100 mg/kg orally, 1 h after PO 250 mg/kg i.p., blood 2 hours after PO)
77.2 ± 4.7	unstable in an aqueous solution					O=C1NC(Cc2ccc(O)cc2)C(=O)NC1CS (stereo not shown) [Cyclo(Tyr-Cys)]			
49 ± 3		high solubility in water	1000 (≈ 220 µg/mL)	inhibited	inhibited	O=C1CNC(=O)C(Cc2ccc(O)cc2)N1 (stereo not shown) [Cyclo(Tyr-Gly), cyclotyrosylglycine]	significant difference in effects on the PO Group	significant difference in effects on the PO Group	action of lowering a uric acid level in a dose-dependent manner
